According to ChEMBL document CHEMBL3390839, “Triazolopyrimidinones as -secretase modulators: structureactivity relationship, modulator profile, and in vivo profiling” (Medchemcomm, 2013):
Values after ≈ are worked out from the molar mass of the structure shown.

How the values were obtained:
[1] = Solubility of the compound; format: physicochemical
[2] = tested on: Liver microsome; experiment: Intrinsic clearance in human liver microsomes measured pre ug of protein; format: ADME
[3] = target: Voltage-gated inwardly rectifying potassium channel KCNH2 (Homo sapiens, UniProt Q12809); experiment: Inhibition of human ERG
Voltage-gated inwardly rectifying potassium channel KCNH2, sequence (Q12809 whole entry): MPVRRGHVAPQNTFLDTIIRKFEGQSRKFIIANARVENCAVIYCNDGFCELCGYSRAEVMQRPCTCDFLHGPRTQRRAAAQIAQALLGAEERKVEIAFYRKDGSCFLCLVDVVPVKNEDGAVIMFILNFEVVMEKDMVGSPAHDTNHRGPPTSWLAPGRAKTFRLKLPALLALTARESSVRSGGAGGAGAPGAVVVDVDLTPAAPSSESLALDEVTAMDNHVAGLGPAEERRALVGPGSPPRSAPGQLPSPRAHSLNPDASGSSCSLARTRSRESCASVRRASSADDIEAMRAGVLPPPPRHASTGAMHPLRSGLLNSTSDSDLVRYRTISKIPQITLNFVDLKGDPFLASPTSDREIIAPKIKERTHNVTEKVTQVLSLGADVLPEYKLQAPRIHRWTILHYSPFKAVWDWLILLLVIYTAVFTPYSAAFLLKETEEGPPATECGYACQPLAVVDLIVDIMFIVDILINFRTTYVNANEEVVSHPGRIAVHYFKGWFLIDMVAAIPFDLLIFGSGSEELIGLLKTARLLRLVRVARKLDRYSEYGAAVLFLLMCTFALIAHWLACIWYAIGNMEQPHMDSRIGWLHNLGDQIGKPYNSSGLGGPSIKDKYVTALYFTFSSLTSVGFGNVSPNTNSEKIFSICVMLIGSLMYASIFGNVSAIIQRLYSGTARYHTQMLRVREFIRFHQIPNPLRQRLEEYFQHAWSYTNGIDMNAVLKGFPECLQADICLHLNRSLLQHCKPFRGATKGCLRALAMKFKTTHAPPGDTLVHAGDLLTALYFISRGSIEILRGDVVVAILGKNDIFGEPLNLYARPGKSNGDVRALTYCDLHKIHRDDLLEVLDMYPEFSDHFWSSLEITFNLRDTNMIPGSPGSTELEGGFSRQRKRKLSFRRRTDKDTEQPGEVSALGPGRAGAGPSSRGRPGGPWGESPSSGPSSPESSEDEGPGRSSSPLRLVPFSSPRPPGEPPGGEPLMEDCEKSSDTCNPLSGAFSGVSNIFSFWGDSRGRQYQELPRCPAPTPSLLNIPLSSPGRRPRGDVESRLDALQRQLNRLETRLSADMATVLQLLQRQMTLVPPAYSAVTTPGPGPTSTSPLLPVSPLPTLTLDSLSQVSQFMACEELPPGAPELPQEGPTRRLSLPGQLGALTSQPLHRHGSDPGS

[4] = Inhibition of gamma-secretase in mouse primary cortical neurons cells assessed as amyloid beta42 production after 5 days by ELISA; format: cell-based, Cerebral cortex neuron; settings: for IC50: Mus musculus, Cerebral cortex neuron, 120 h; for pIC50: cerebral cortex neuron
[5] = target: Gamma-secretase; experiment: Inhibition of human gamma-secretase in HEK-APPswe cells assessed as amyloid beta42 production by electrochemiluminescence assay; format: cell-based
[6] = Permeability across basolateral to apical side in human Caco2 cells; format: ADME, cell-based; settings: for Papp B→A: Caco-2, read-out: permeability; for permeability: Caco-2
[7] = Ratio of drug level in brain to plasma in C57BL/6 mouse; format: ADME, organism-based; settings: brain and plasma, read-out: BPR
[8] = Permeability across apical to basolateral side in human Caco2 cells; format: ADME, cell-based; settings: for Papp A→B: Caco-2, read-out: permeability; for permeability: Caco-2

Compound	solubility ([1]; read-out: solubility) [µM]	CLH [2] [µL/min]	IC50 [3] [nM]	IC50 [4] [nM]	pIC50 [4]	pIC50 [5]	Papp B→A [6] [×10⁻⁶ cm/s]	Kp [7]	Papp A→B [8] [×10⁻⁶ cm/s]	permeability [6] [×10⁻⁶ cm/s]	permeability [8] [×10⁻⁶ cm/s]	solubility [1] [µM]
COc1cc(Nc2nc3n(n2)CCC(=O)N3Cc2ccccc2C)ccc1-c1ccc(C)nn1	< 1	66	33000	–	–	–	–	–	–	–	–	–
COc1cc(Nc2nc3n(n2)CC(O)CN3Cc2ccccc2)ccc1-n1cnc(C)c1 (stereo not given)	290 (≈ 125 µg/mL)	19	28000	100	–	–	–	–	–	–	–	–
COc1cc(Nc2nc3n(n2)C(C2CC2)CCN3CC(C)(C)O)ccc1-n1cnc(C)c1 (stereo in doubt; 42B)	42 (≈ 18.4 µg/mL)	21	33000	–	6.9	–	–	–	–	–	–	–
COc1cc(Nc2nc3n(n2)CC(C)C(=O)N3Cc2ccccc2)ccc1-n1cnc(C)c1 (stereo not given)	2 (≈ 0.887 µg/mL)	84	5600	50.1	–	–	–	–	–	–	–	–
N#CCc1ccc(Nc2nc3n(n2)CCCC3c2ccc(F)cc2)cc1 (stereo not given)	–	–	–	–	–	5.8	–	–	–	–	–	–
COc1cc(Nc2nc3n(n2)CCC(=O)N3Cc2ccccc2C)ccc1-c1noc(C)n1	50 (≈ 22.3 µg/mL)	39	33000	–	–	4.8	12	0.81	38	–	–	–
COc1cc(Nc2nc3n(n2)CCCC3c2ccccc2)ccc1-n1cnc(C)c1 (stereo not given)	–	–	–	50.1	–	7.6	13	0.12	36	–	–	–
COc1cc(Nc2nc3n(n2)C(c2ccccc2)CCN3CC(C)(C)O)ccc1-n1cnc(C)c1 (stereo not given)	230 (≈ 109 µg/mL)	39	26000	25.1	–	–	19	0.01	35	–	–	–
COc1cc(Nc2nc3n(n2)CCC(=O)N3Cc2ccccc2C(F)(F)F)ccc1-n1cnc(C)n1	–	19	33000	–	–	7.3	–	0.68	–	18	45	–
COc1cc(Nc2nc3n(n2)CCC(=O)N3c2ccccc2)ccc1-n1cnc(C)c1	2 (≈ 0.831 µg/mL)	36	33000	251	–	7.4	–	–	–	–	–	–
COc1cc(Nc2nc3n(n2)CC(C)(O)CN3Cc2ccccc2)ccc1-n1cnc(C)c1 (stereo not given)	160 (≈ 71.3 µg/mL)	17	23000	126	–	–	–	–	–	–	–	–
COc1cc(Nc2nc3n(n2)CCCN3CCC2CC2)ccc1-n1cnc(C)c1	17 (≈ 6.69 µg/mL)	105	6200	79.4	–	7.4	–	–	–	–	–	–
COc1nc(Nc2nc3n(n2)CCCC3c2ccc(F)cc2)ccc1-n1cnc(C)c1 (stereo not given)	–	–	–	–	–	7.2	–	–	–	–	–	–
COc1cc(Nc2nc3n(n2)CCCC3c2ccc(F)cc2)ccc1-c1cnnc(C)c1 (stereo not given)	–	–	–	100	–	7.7	–	–	–	–	–	–
Cc1nnc(-c2ccc(Nc3nc4n(n3)CCCC4c3ccc(F)cc3)cc2)o1 (stereo not given)	–	–	–	–	–	5.9	–	–	–	–	–	–
COc1cc(Nc2nc3n(n2)CCCN3Cc2ccccc2)ccc1-n1cnc(C)c1	49 (≈ 20.4 µg/mL)	82	5000	100	–	7.7	–	–	–	–	–	–
COc1cc(Nc2nc3n(n2)CCC(=O)N3Cc2ccccc2C)ccc1-c1cnnc(C)c1	< 1	109	33000	39.8	–	8	6	0.07	14	–	–	–
COc1cc(Nc2nc3n(n2)C(C2CC2)CCN3CCC(C)(C)O)ccc1-n1cnc(C)c1 (stereo not given)	69 (≈ 31.2 µg/mL)	26	16000	100	–	–	–	–	–	–	–	–
COc1cc(Nc2nc3n(n2)C(C)CCN3CCC(C)(C)O)ccc1-n1cnc(C)c1 (stereo not given)	380 (≈ 162 µg/mL)	47	32000	158	–	–	–	–	–	–	–	–

Compound	solubility ([1]; read-out: solubility) [µM]	CLH [2] [µL/min]	IC50 [3] [nM]	IC50 [4] [nM]	pIC50 [4]	pIC50 [5]	Papp B→A [6] [×10⁻⁶ cm/s]	Kp [7]	Papp A→B [8] [×10⁻⁶ cm/s]	permeability [6] [×10⁻⁶ cm/s]	permeability [8] [×10⁻⁶ cm/s]	solubility [1] [µM]
COc1cc(Nc2nc3n(n2)C(C)CCN3CC(C)(C)O)ccc1-n1cnc(C)c1 (stereo not given)	330 (≈ 136 µg/mL)	33	33000	316	–	6.5	–	–	–	–	–	–
COc1cc(Nc2nc3n(n2)C(C)CC(=O)N3Cc2ccccc2)ccc1-n1cnc(C)c1 (stereo in doubt; 19A)	–	73	–	–	6.8	7.7	–	–	–	–	–	1 (≈ 0.444 µg/mL)
COc1cc(Nc2nc3n(n2)CCC(=O)N3Cc2ccccc2C)ccc1-c1cc(C)cnn1	170 (≈ 77.4 µg/mL)	27	33000	–	–	5	–	–	–	–	–	–
COc1cc(Nc2nc3n(n2)CCC(=O)N3Cc2ccccc2)ccc1-n1cnc(C)c1	< 1	30	5700	79.4	–	7.9	12	0.24	36	–	–	–
COc1cc(Nc2nc3n(n2)CCC(O)N3Cc2ccccc2)ccc1-n1cnc(C)c1 (stereo not given)	110 (≈ 47.5 µg/mL)	37	–	79.4	–	7.8	–	0.01	–	34	12	–
COc1cc(Nc2nc3n(n2)CCC(=O)N3Cc2ccccc2)ccc1-n1cnc(C)n1	8 (≈ 3.44 µg/mL)	16	17000	794	–	7	–	–	–	–	–	–
COc1cc(Nc2nc3n(n2)C(C)(C)CC(=O)N3Cc2ccc(F)cc2)ccc1-n1cnc(C)c1	2 (≈ 0.951 µg/mL)	50	5600	31.6	–	7.9	–	0.23	–	–	–	–
COc1cc(Nc2nc3n(n2)CCCC3c2ccc(F)cc2)ccc1-n1cnc(C)n1 (stereo in doubt; 14A)	–	–	–	–	7	7.4	–	–	–	–	–	–
COc1cc(Nc2nc3n(n2)CCCC3c2ccc(F)cc2)ccc1-c1nc(C)no1 (stereo not given)	–	–	–	–	–	6.8	–	–	–	–	–	–
COc1cc(Nc2nc3n(n2)CCC(=O)N3Cc2ccccc2Cl)ccc1-n1cnc(C)n1	< 1	22	33000	–	–	7.4	–	–	–	–	–	–
COc1cc(Nc2nc3n(n2)C(C)CC(=O)N3CC2CC(F)(F)C2)ccc1-n1cnc(C)c1 (stereo not given)	4 (≈ 1.83 µg/mL)	101	4400	50.1	–	–	19	0.08	50	–	–	–
COc1cc(Nc2nc3n(n2)C(C)CC(=O)N3Cc2cc(F)ccc2F)ccc1-n1cnc(C)c1 (stereo not given)	< 1	70	–	20	–	7.7	–	–	–	–	–	–
COc1cc(Nc2nc3n(n2)CCC(=O)N3Cc2ccccc2C)ccc1-c1cnc(C)nc1	< 1	94	11000	–	–	7.2	–	–	–	–	–	–
COc1cc(Nc2nc3n(n2)CCCC3c2ccc(F)cc2)ccc1-n1cnc(C)n1 (stereo in doubt; 14B)	–	–	–	–	6.5	7	–	–	–	–	–	–
COc1cc(Nc2nc3n(n2)CCC(=O)N3Cc2ccccc2C)ccc1-n1cnc(C)c1	< 1	114	13000	39.8	–	8	–	–	–	–	–	–
COc1cc(Nc2nc3n(n2)C(C2CC2)CC(=O)N3Cc2cc(F)ccc2F)ccc1-n1cnc(C)c1 (stereo not given)	< 1	88	33000	15.8	–	–	–	0.11	–	–	–	–
COc1cc(Nc2nc3n(n2)CCC(=O)N3Cc2ccccc2C)ccc1-c1ccnnc1	< 1	56	33000	79.4	–	7.5	22	0.11	18	–	–	–
COc1cc(Nc2nc3n(n2)C2(CC2)CC(=O)N3Cc2ccc(F)cc2)ccc1-n1cnc(C)c1	< 1	29	–	25.1	–	7.9	–	–	–	–	–	–
